Experimental data reported in patent publication US20240415914A1, “Water Dispersible Cannabinoid Compositions” (priority 2021, published 2024).

Assay: Stability of cannabinoid and Vitamin E components of Beverage 1 (AB White) stored at 8° C. and 21-25° C., LCMSMS over 570 days
Assay type: physicochemical
Details: for Stability in AB White, 8° C. (content by LCMSMS): beverage stored at 8° C.; for Stability in AB White, 21-25° C. (content by LCMSMS): beverage stored at 21-25° C.
Method: The LCMSMS was calibrated for 0-1000 ng/ml cannabinoids with the same resin material used in the preparation of the concentrates. At each time period, 100 ml of beverage was diluted with 10 ml of methanol and injected into the LCMSMS for analysis.

SMILES: CCCCCc1cc(O)c2c(c1)OC1(C)CCC3C1C2C3(C)C (centres unmarked) [CBL, cannabicyclol]
- Stability in AB White, 8° C. (content by LCMSMS) (day 0): 0.550 µg/mL
- Stability in AB White, 8° C. (content by LCMSMS) (day 1): 0.541 µg/mL
- Stability in AB White, 8° C. (content by LCMSMS) (day 2): 0.542 µg/mL
- Stability in AB White, 8° C. (content by LCMSMS) (day 3): 0.553 µg/mL
- Stability in AB White, 8° C. (content by LCMSMS) (day 5): 0.552 µg/mL
- Stability in AB White, 8° C. (content by LCMSMS) (day 8): 0.537 µg/mL
- Stability in AB White, 8° C. (content by LCMSMS) (day 9): 0.535 µg/mL
- Stability in AB White, 8° C. (content by LCMSMS) (day 10): 0.544 µg/mL
- Stability in AB White, 8° C. (content by LCMSMS) (day 11): 0.544 µg/mL
- Stability in AB White, 8° C. (content by LCMSMS) (day 12): 0.553 µg/mL
- Stability in AB White, 8° C. (content by LCMSMS) (day 15): 0.534 µg/mL
- Stability in AB White, 8° C. (content by LCMSMS) (day 16): 0.546 µg/mL
- Stability in AB White, 8° C. (content by LCMSMS) (day 17): 0.540 µg/mL
- Stability in AB White, 8° C. (content by LCMSMS) (day 18): 0.536 µg/mL
- Stability in AB White, 8° C. (content by LCMSMS) (day 19): 0.537 µg/mL
- Stability in AB White, 8° C. (content by LCMSMS) (day 22): 0.555 µg/mL
- Stability in AB White, 8° C. (content by LCMSMS) (day 23): 0.545 µg/mL
- Stability in AB White, 8° C. (content by LCMSMS) (day 24): 0.548 µg/mL
- Stability in AB White, 8° C. (content by LCMSMS) (day 25): 0.540 µg/mL
- Stability in AB White, 8° C. (content by LCMSMS) (day 26): 0.534 µg/mL
- Stability in AB White, 8° C. (content by LCMSMS) (day 29): 0.547 µg/mL
- Stability in AB White, 8° C. (content by LCMSMS) (day 30): 0.544 µg/mL
- Stability in AB White, 8° C. (content by LCMSMS) (day 60): 0.543 µg/mL
- Stability in AB White, 8° C. (content by LCMSMS) (day 90): 0.527 µg/mL
- Stability in AB White, 8° C. (content by LCMSMS) (day 120): 0.534 µg/mL
- Stability in AB White, 8° C. (content by LCMSMS) (day 150): 0.540 µg/mL
- Stability in AB White, 8° C. (content by LCMSMS) (day 180): 0.542 µg/mL
- Stability in AB White, 8° C. (content by LCMSMS) (day 210): 0.534 µg/mL
- Stability in AB White, 8° C. (content by LCMSMS) (day 240): 0.535 µg/mL
- Stability in AB White, 8° C. (content by LCMSMS) (day 270): 0.539 µg/mL
- Stability in AB White, 8° C. (content by LCMSMS) (day 300): 0.526 µg/mL
- Stability in AB White, 8° C. (content by LCMSMS) (day 330): 0.543 µg/mL
- Stability in AB White, 8° C. (content by LCMSMS) (day 360): 0.533 µg/mL
- Stability in AB White, 8° C. (content by LCMSMS) (day 390): 0.535 µg/mL
- Stability in AB White, 8° C. (content by LCMSMS) (day 420): 0.526 µg/mL
- Stability in AB White, 8° C. (content by LCMSMS) (day 450): 0.532 µg/mL
- Stability in AB White, 8° C. (content by LCMSMS) (day 480): 0.521 µg/mL
- Stability in AB White, 8° C. (content by LCMSMS) (day 510): 0.514 µg/mL
- Stability in AB White, 8° C. (content by LCMSMS) (day 540): 0.514 µg/mL
- Stability in AB White, 8° C. (content by LCMSMS) (day 570): 0.503 µg/mL
- Stability in AB White, 21-25° C. (content by LCMSMS) (day 0): 0.550 µg/mL
- Stability in AB White, 21-25° C. (content by LCMSMS) (day 1): 0.539 µg/mL
- Stability in AB White, 21-25° C. (content by LCMSMS) (day 2): 0.540 µg/mL
- Stability in AB White, 21-25° C. (content by LCMSMS) (day 3): 0.543 µg/mL
- Stability in AB White, 21-25° C. (content by LCMSMS) (day 5): 0.530 µg/mL
- Stability in AB White, 21-25° C. (content by LCMSMS) (day 8): 0.542 µg/mL
- Stability in AB White, 21-25° C. (content by LCMSMS) (day 9): 0.535 µg/mL
- Stability in AB White, 21-25° C. (content by LCMSMS) (day 10): 0.546 µg/mL
- Stability in AB White, 21-25° C. (content by LCMSMS) (day 11): 0.552 µg/mL
- Stability in AB White, 21-25° C. (content by LCMSMS) (day 12): 0.529 µg/mL
- Stability in AB White, 21-25° C. (content by LCMSMS) (day 15): 0.548 µg/mL
- Stability in AB White, 21-25° C. (content by LCMSMS) (day 16): 0.537 µg/mL
- Stability in AB White, 21-25° C. (content by LCMSMS) (day 17): 0.554 µg/mL
- Stability in AB White, 21-25° C. (content by LCMSMS) (day 18): 0.554 µg/mL
- Stability in AB White, 21-25° C. (content by LCMSMS) (day 19): 0.552 µg/mL
- Stability in AB White, 21-25° C. (content by LCMSMS) (day 22): 0.547 µg/mL
- Stability in AB White, 21-25° C. (content by LCMSMS) (day 23): 0.530 µg/mL
- Stability in AB White, 21-25° C. (content by LCMSMS) (day 24): 0.546 µg/mL
- Stability in AB White, 21-25° C. (content by LCMSMS) (day 25): 0.532 µg/mL
- Stability in AB White, 21-25° C. (content by LCMSMS) (day 26): 0.549 µg/mL
- Stability in AB White, 21-25° C. (content by LCMSMS) (day 29): 0.552 µg/mL
- Stability in AB White, 21-25° C. (content by LCMSMS) (day 30): 0.543 µg/mL
- Stability in AB White, 21-25° C. (content by LCMSMS) (day 60): 0.544 µg/mL
- Stability in AB White, 21-25° C. (content by LCMSMS) (day 90): 0.541 µg/mL
- Stability in AB White, 21-25° C. (content by LCMSMS) (day 120): 0.516 µg/mL
- Stability in AB White, 21-25° C. (content by LCMSMS) (day 150): 0.517 µg/mL
- Stability in AB White, 21-25° C. (content by LCMSMS) (day 180): 0.527 µg/mL
- Stability in AB White, 21-25° C. (content by LCMSMS) (day 210): 0.514 µg/mL
- Stability in AB White, 21-25° C. (content by LCMSMS) (day 240): 0.515 µg/mL
- Stability in AB White, 21-25° C. (content by LCMSMS) (day 270): 0.535 µg/mL
- Stability in AB White, 21-25° C. (content by LCMSMS) (day 300): 0.532 µg/mL
- Stability in AB White, 21-25° C. (content by LCMSMS) (day 330): 0.526 µg/mL
- Stability in AB White, 21-25° C. (content by LCMSMS) (day 360): 0.526 µg/mL
- Stability in AB White, 21-25° C. (content by LCMSMS) (day 390): 0.518 µg/mL
- Stability in AB White, 21-25° C. (content by LCMSMS) (day 420): 0.523 µg/mL
- Stability in AB White, 21-25° C. (content by LCMSMS) (day 450): 0.521 µg/mL
- Stability in AB White, 21-25° C. (content by LCMSMS) (day 480): 0.510 µg/mL
- Stability in AB White, 21-25° C. (content by LCMSMS) (day 510): 0.503 µg/mL
- Stability in AB White, 21-25° C. (content by LCMSMS) (day 540): 0.510 µg/mL
- Stability in AB White, 21-25° C. (content by LCMSMS) (day 570): 0.505 µg/mL
